# Substitutions are numbered along the chain they refer to. Where two headings read alike, the source gives them in different places.
# How the values were obtained:
# Human BAK-∆TM-His6 (BAK) = biological target: T1, Human BAK-∆TM-His6 (BAK) (Homo sapiens, UniProt Q16611); assay: Liposome permeabilization assay (ANTS/DPX dye release from LUVs): activation of WT BAK by BH3 peptides; assay type: biochemical; set-up: AUC for Experiment-2 (Mean) / AUC for Experiment-3 (Mean) / AUC for Experiment-1 (Mean): scale not given here; conditions: for EC50: 50 nM BAK; for activation of WT BAK in liposome permeabilization assays: BAK BH3 peptide ligands, 50 nM WT BAK receptor; for peptide concentration at which ligands activate WT BAK / lowest dose at which permeabilization is observed: liposome permeabilization; for peptide concentration at which ligands activate WT BAK: Suppl. Figs. 3e, 4d, e; for lowest dose at which permeabilization is observed: robust across experiments; for AUC for Experiment-1 (Mean) / AUC for Experiment-2 (Mean) / AUC for Experiment-3 (Mean): AUC 0-88 mins of liposome permeabilization; for AUC for Experiment-1 (Mean): Experiment-1, mean of N replicates; for AUC for Experiment-2 (Mean): Experiment-2, mean of N replicates; for AUC for Experiment-3 (Mean): Experiment-3, mean of N replicates
# T1 construct: C-terminus truncated recombinant human BAK containing C-terminal 6× histidine tag (MEAS-BAK); made in house; host or cells: E. coli T7 Express pLac I/Y
# T1 sequence (Q16611 1-186 limits assumed): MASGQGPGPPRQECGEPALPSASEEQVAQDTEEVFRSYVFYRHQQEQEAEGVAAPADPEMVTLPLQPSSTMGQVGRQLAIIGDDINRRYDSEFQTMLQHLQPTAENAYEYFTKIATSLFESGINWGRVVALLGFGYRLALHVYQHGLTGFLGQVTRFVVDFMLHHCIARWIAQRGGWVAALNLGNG
# I81R(3) BAK = biological target: T2, I81R(3) BAK (Homo sapiens, UniProt Q16611, I81R); assay: Liposome permeabilization assay: BH3 peptide activation of I81R(3) BAK receptor; assay type: biochemical; conditions: 50 nM mutant BAK; Suppl. Fig. 4f
# T2 construct: C-terminus truncated recombinant human BAK containing C-terminal 6× histidine tag (MEAS-BAK); made in house; host or cells: E. coli T7 Express pLac I/Y
# T2 sequence (Q16611 1-186 I81R limits assumed): T1 sequence (Q16611 1-186 limits assumed) with I81R
# Method: We next compared activation of mutant BAK receptors by WT BID BH3 and WT BAK BH3 peptide ligands. At concentrations above 1 µM, both peptide ligands would activate WT or V74A(1) BAK (Supplementary Figs. 3e, 4d, e, and Supplementary Table 1).
# We performed liposome permeabilization assays as previously described[43]–[46]. […] (nickel salt) [DGS NTA(Ni), 2.5 μM final concentration in each assay] (Avanti Polar Lipids). We prepared 12.5 mM fluorophore; 8-aminonaphthalene-1, 3, 6-trisulfonic acid, disodium salt (ANTS) and 45 mM quencher; p-xylene-bis-pyridiniumbromide (DPX) in LUV buffer (10 mM HEPES pH 6.8, 200 mM KCl and 5 mM MgCl2). We mixed the lipid film in ANTS/DPX solution by vortexing and sonication (~15 min) followed by extrusion through polycarbonate membrane of 2 μm pore size (Avanti Polar lipids) to generate homogenous large unilamellar vesicles (LUVs). We separated LUVs from free ANTS/DPX by S500 size exclusion chromatography and stored them at 4 °C in the dark. We prepared peptide and protein dilutions in 96-well black flat bottom plates (Costar) kept on ice. ANTS release from permeabilized liposomes causes an increase in fluorescence, which we monitored at 37 °C for 90 min using a CLARIOSTAR microplate reader (BMG Labtech) set at excitation and emission wavelengths of 360 and 530 nm, respectively. We normalized the data relative to maximum and minimum fluorescence induced by 3% CHAPS and buffer controls, respectively. We quantified liposome permabilization by integrating area under curve (AUC) of normalized traces based on the Simpson’s equation, and analyzed that data in Excel and GraphPad Prism. AUC measurements reflect the kinetic and extent of liposome permeabilization and provide quantitative means for comparison between different experimental conditions (e.g., BAK mutants with gross or partial variation in activity). Variability in permeabilization of different liposomes is common and our analyses compare among conditions investigated with the same liposomes. […]
SMILES,"EC50 (Human BAK-∆TM-His6 (BAK); EC50 from AUC vs peptide dose, data in Supplementary Figure 4b, 37 °C, 90 min, read-out: Liposome permeabilization EC50)","EC50 (Human BAK-∆TM-His6 (BAK); peer review file, read-out: EC50 analysis of liposome permeabilization (rebuttal, earlier manuscript version))",activation of WT BAK in liposome permeabilization assays (Human BAK-∆TM-His6 (BAK)),activation of WT BAK in liposome permeabilization assays (Human BAK-∆TM-His6 (BAK); listed as WT BAK BH3 peptide),peptide concentration at which ligands activate WT BAK (Human BAK-∆TM-His6 (BAK)),lowest dose at which permeabilization is observed (Human BAK-∆TM-His6 (BAK)),liposome permeabilization by 50 nM I81R(3) BAK receptor (I81R(3) BAK),"EC50 (Human BAK-∆TM-His6 (BAK); EC50 from AUC vs peptide dose, data in Supplementary Figure 7c, 37 °C, 90 min, read-out: Liposome permeabilization EC50)",AUC for Experiment-1 (Mean) (Human BAK-∆TM-His6 (BAK); 1 μM peptide + 50 nM BAK),AUC for Experiment-2 (Mean) (Human BAK-∆TM-His6 (BAK); 1 μM peptide + 50 nM BAK),AUC for Experiment-3 (Mean) (Human BAK-∆TM-His6 (BAK); 1 μM peptide + 50 nM BAK),AUC for Experiment-1 (Mean) (Human BAK-∆TM-His6 (BAK); 50 μM peptide + 50 nM BAK),AUC for Experiment-2 (Mean) (Human BAK-∆TM-His6 (BAK); 50 μM peptide + 50 nM BAK),AUC for Experiment-3 (Mean) (Human BAK-∆TM-His6 (BAK); 50 μM peptide + 50 nM BAK)
CC[C@H](C)[C@H](NC(=O)[C@H](C)NC(=O)[C@H](CC(C)C)NC(=O)[C@H](CCC(N)=O)NC(=O)[C@H](CCCNC(=N)N)NC(=O)CNC(=O)[C@@H](NC(=O)[C@H](CCC(N)=O)NC(=O)CNC(=O)[C@H](CCSC)NC(=O)[C@@H](NC(=O)[C@H](CO)NC(=O)[C@H](CO)NC(C)=O)[C@@H](C)O)C(C)C)C(=O)N[C@H](C(=O)NCC(=O)N[C@@H](CC(=O)O)C(=O)N[C@@H](CC(=O)O)C(=O)N[C@H](C(=O)N[C@@H](CC(N)=O)C(=O)N[C@@H](CCCNC(=N)N)C(=O)N[C@@H](CCCNC(=N)N)C(=O)N[C@@H](Cc1ccc(O)cc1)C(N)=O)[C@@H](C)CC)[C@@H](C)CC [WT BAK BH3],35.8 ± 30.4 nM,50 to 200 nM,activates BAK in liposome permeabilization assays similarly to BID BH3,potently activate WT BAK,above 1 µM,0.1 µM,neither peptide ligands could promote liposome permeabilization,–,–,–,–,–,–,–
"CC[C@H](C)[C@H](NC(=O)[C@H](CO)NC(=O)[C@H](CCCNC(=N)N)NC(=O)[C@H](CC(=O)O)NC(=O)[C@H](CCSC)NC(=O)[C@H](CO)NC(=O)[C@H](CC(=O)O)NC(=O)CNC(=O)[C@@H](NC(=O)[C@H](CCC(N)=O)NC(=O)[C@H](C)NC(=O)[C@H](CC(C)C)NC(=O)[C@H](Cc1c[nH]cn1)NC(=O)[C@H](CCCNC(=N)N)NC(=O)[C@H](C)NC(=O)[C@@H](NC(=O)[C@H](CC(N)=O)NC(=O)[C@H](CCCNC(=N)N)NC(=O)[C@@H](NC(=O)[C@@H](NC(=O)[C@H](CC(=O)O)NC(=O)[C@H](CCC(=O)O)NC(C)=O)[C@@H](C)CC)[C@@H](C)CC)[C@@H](C)CC)C(C)C)C(N)=O [WT BID BH3, reference compound]",–,–,–,–,above 1 µM,1 µM,neither peptide ligands could promote liposome permeabilization,59 ± 12 nM,17.777,10.071,10.975,14.842,13.692,17.854
